Source: patent US12582624B2, “Co-crystal of gabapentin, ketoprofen and lysine, pharmaceutical compositions and their medical use” (DOMPÉ FARMACEUTICI S.P.A., priority 2020, dated 2026)

Assays:
[1] = cited from earlier work
[2] = system: carrageenan-induced rat paw edema; assay: Carrageenan-induced rat paw edema test; type: in vivo
Experimental: Inflammatory pain in rats induced by carrageenan intraplantar injection Male Wistar rats (270-280 g) (Envigo, Italy), were housed 2-3 per cage under controlled illumination (12:12 h light:dark cycle; light on 06.00 h) and standard environmental conditions (room temperature 22±1° C., humidity 60±10%) for at least 1 week before experimental use. Rat chow and tap water were available ad libitum. The procedures were approved by the Animal Ethics Committee of University of Campania “Luigi Vanvitelli”. Animal care was in compliance with Italian Legislative Decree (D.L. 116/92) and European Commission Directive (O.J. of E.C. L358/1, 18/12/86) regulations on the protection of laboratory animals. All efforts were made to minimize animal suffering and the number of animals used.
Peripheral inflammatory pain was induced in the left hind paw of each animal by a single intraplantar injection of 1% A-carrageenan (100 μl for each rat in 0.9% NaCl). […] Edema was expressed as the mean increase in paw volume (ml) relative to control animals. The percentage inhibition of edema was calculated by the following equation: % inhibition of edema=(Vc−Vt/Vc)×100, where Vc is the edema volume in the control group and Vt is the edema volume in treated group.

[3] = in vivo; details: male, Sprague Dawley, rat, po
Source text: Aim of the study was the determination of the brain penetration of Gabapentin in KLS-Gabapentin Co-crystal compared to the physical mixture of KLS and so Gabapentin and Gabapentin alone after administration in capsules in the rats.
Sprague Dawley male rat (body weights 310 gr at the time of the treatment) were used in this study. The animals were originally supplied by Harlan, Italy. Once receipt from the supplier, the animals were subjected to health examinations and acceptance. The animals were housed, in a group of three, in cages suitable for the species and were routinely kept in the following environment except for short periods of time where experimental procedures dictated otherwise. The animals were acclimatized to local housing conditions for approximately 5 days.
The experimental protocol consisted in the blood and brain tissue sampling on the animals according to the following Tables 12 and 13 and analysis of samples as described below.
Stock solutions of Ketoprofen and Gabapentin were prepared at 1 mg/mL in MeOH and a mix stock solution was prepared by dilution of the two mentioned before to reach a final concentration of 100 μg/mL of each analyte. Stock solutions of DF1681Y and Gabapentin Impurity A were prepared respectively at 2 mg/mL and 1 mg/mL in MeOH. A mixture of the two was prepared in ACN with a final so concentration of 5000 and 500 ng/mL respectively (mix IS). […]

[4] = in vivo; cited from earlier work
[5] = cited from earlier work; remark: listed apart in the source

Row | SMILES | pKa [1] | Activity on inflammatory pain ([2]; Carrageenan inflammatory rat model) | Effect on carrageenan-evoked edema ([2]; FIGS. 13 and 15, oral, rat) | Kp at 2 h [3] | Side effect: ataxia [4] | Side effect: dizziness [4] | Side effect: fatigue [4] | Side effect: somnolence [4] | Time to utmost level in plasma ([5]; after oral administration) | Plasma protein binding ([5]; in vivo) | Excretion half-life ([5]; renal excretion)
1 | CC(C(=O)O)c1cccc(C(=O)c2ccccc2)c1 (racemic) [Ketoprofen, (RS)-2-(3-benzoylphenyl)-propionic acid] | 4.08 | – | – | – | – | – | – | – | – | – | –
2 | NCC1(CC(=O)O)CCCCC1 [Gabapentin] | – | little active | less effective | 0.378 | 13% | 18% | 11% | 20% | 3 to 4 h | does not attach to plasma proteins | roughly 6 hours
